These results are taken from patent US11254686B1 (Corvus Pharmaceuticals, Inc., priority 2017, dated 2022).

A value given as a limit tells only on which side of the number the result lay.

The term IC50 denotes the concentration needed to halve the response being measured.

Holding throughout (assay type): biochemical
One experiment addresses adenosine A2B receptor (Homo sapiens (Human), UniProt P29275). Kind of experiment: Adenosine receptor activity assay (Table 1), A2B activity. The following applies: for Ratio: A2A activity to the A2B activity, A2A/A2B; for IC50: read-out: Ave A2B cAMP IC50.
The target in a further experiment is adenosine A1 receptor (Homo sapiens (Human), UniProt P30542). Briefly: Adenosine receptor activity assay (Table 1), A1 cAMP. Here is the method:
(§1) Table 1. Compounds (e.g., Adenosine Receptor modulators) and activity assay results. The legend is as follows: A=<10 nM; B=10-50 nM; C=50-100 nM; D=100-500; and E=>500 nM. The ratio corresponds to the A2A activity to the A2B activity; or A2A/A2B.

The next experiment has as its target adenosine A2A receptor (Homo sapiens (Human), UniProt P29274). Briefly: Adenosine receptor activity assay (Table 1), A2A activity. The following applies: read-out: Ave A2A cAMP IC50.
For another experiment, the target named is adenosine A3 receptor (Homo sapiens (Human), UniProt P0DMS8). Briefly: Adenosine receptor activity assay (Table 1), A3 cAMP. As for the experimental part: as §1
Chain of adenosine A3 receptor (P0DMS8 whole entry): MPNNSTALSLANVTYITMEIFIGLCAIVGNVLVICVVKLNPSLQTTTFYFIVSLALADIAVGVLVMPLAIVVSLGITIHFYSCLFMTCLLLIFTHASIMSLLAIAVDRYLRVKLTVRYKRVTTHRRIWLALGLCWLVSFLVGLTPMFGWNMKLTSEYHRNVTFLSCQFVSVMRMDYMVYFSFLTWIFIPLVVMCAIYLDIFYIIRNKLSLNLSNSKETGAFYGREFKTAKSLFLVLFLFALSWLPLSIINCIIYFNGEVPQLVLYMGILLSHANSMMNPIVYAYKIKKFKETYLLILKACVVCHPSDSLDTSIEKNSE

Chain of adenosine A2A receptor (P29274 whole entry): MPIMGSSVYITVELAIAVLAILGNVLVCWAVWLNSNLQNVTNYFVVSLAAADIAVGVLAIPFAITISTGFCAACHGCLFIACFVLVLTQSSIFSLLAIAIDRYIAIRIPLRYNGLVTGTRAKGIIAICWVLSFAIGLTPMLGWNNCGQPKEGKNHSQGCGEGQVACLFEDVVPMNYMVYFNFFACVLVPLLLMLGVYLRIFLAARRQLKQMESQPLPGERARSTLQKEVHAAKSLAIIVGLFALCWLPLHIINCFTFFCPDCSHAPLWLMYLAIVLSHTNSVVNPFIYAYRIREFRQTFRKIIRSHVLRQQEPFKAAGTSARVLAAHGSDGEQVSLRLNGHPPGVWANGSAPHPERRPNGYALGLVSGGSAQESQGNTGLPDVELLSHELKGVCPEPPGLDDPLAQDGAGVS
Chain of adenosine A1 receptor (P30542 whole entry): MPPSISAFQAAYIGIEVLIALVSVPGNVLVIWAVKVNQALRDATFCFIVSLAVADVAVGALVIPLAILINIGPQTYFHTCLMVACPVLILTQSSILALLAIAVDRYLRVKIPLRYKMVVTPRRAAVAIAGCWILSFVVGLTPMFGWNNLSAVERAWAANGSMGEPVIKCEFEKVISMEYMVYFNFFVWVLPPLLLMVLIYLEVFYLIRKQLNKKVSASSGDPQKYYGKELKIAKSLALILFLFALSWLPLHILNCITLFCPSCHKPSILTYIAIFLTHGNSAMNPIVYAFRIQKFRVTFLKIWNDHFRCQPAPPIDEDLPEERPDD
Chain of adenosine A2B receptor (P29275 whole entry): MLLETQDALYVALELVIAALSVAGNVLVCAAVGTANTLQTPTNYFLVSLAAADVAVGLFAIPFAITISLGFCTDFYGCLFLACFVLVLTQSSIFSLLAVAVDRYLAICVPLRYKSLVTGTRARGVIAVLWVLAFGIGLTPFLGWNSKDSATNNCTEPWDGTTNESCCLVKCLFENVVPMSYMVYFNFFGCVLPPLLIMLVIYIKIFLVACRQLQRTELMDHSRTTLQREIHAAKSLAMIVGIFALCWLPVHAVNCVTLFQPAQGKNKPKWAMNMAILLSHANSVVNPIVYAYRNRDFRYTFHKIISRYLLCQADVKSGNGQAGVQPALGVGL

In the case of `CC(C)OC(=O)NC1CN(C(=O)c2nc(N[C@@H](C)c3cncc(F)c3)nc3ccsc23)C1` [Example Z510, Isopropyl (S)-(1-(2-((1-(5-fluoropyridin-3-yl)ethyl)amino)thieno[3,2-d]pyrimidine-4-carbonyl)azetidin-3-yl)carbamate], the Ratio at adenosine A2B receptor is 2.03. The IC50 is 10 to 50 nM at adenosine A2B receptor, over 500 nM at adenosine A1 receptor, 10 to 50 nM at adenosine A2A receptor and over 500 nM at adenosine A3 receptor.
With `CC(=O)NCC1CN(C(=O)c2nc(N[C@@H](C)c3cncc(F)c3)nc3ccsc23)C1` [Example Z528, (S)—N-((1-(2-((1-(5-Fluoropyridin-3-yl)ethyl)amino)thieno[3,2-d]pyrimidine-4-carbonyl)azetidin-3-yl)methyl)acetamide], at adenosine A2B receptor, the Ratio was 44.92. Moreover, the IC50 on adenosine A2B receptor is under 10 nM; against adenosine A1 receptor, over 500 nM; on adenosine A2A receptor it was 100 to 500 nM; on adenosine A3 receptor it was over 500 nM.
For `Cc1cc2nc(N[C@@H](C)c3cncc(F)c3)nc(C(=O)NCCC3CCN(C)CC3)c2s1` [Example Z562, (S)-2-((1-(5-Fluoropyridin-3-yl)ethyl)amino)-6-methyl-N-(2-(1-methylpiperidin-4-yl)ethyl)thieno[3,2-d]pyrimidine-4-carboxamide], at adenosine A2B receptor, the Ratio is 127.97. Besides, the 50% inhibitory concentration (IC50) was 10 to 50 nM at adenosine A2B receptor, over 500 nM against adenosine A1 receptor, over 500 nM on adenosine A2A receptor and over 500 nM against adenosine A3 receptor.
With `Cc1cc2nc(N[C@@H](C)c3cncc(F)c3)nc(C(=O)N3CC[C@@H](N)C3)c2s1` [Example Z413, ((R)-3-Aminopyrrolidin-1-yl)(2-(((S)-1-(5-fluoropyridin-3-yl)ethyl)amino)-6-methylthieno[3,2-d]pyrimidin-4-yl)methanone], the Ratio at adenosine A2B receptor was determined as 126.84. In addition, the IC50 was 10 to 50 nM at adenosine A2B receptor, over 500 nM on adenosine A1 receptor, over 500 nM at adenosine A2A receptor and over 500 nM on adenosine A3 receptor.
On to `Cc1cc2nc(N[C@@H](C)c3cncc(F)c3)nc(C(=O)N3CC[C@H](NC(=O)OCc4ccccc4)C3)c2s1` [Example Z473, Benzyl ((S)-1-(2-(((S)-1-(5-fluoropyridin-3-yl)ethyl)amino)-6-methylthieno[3,2-d]pyrimidine-4-carbonyl)pyrrolidin-3-yl)carbamate], for which the Ratio on adenosine A2B receptor stood at 20.60. In addition, the half-inhibitory concentration (IC50) on adenosine A2B receptor was 10 to 50 nM; against adenosine A1 receptor, over 500 nM; on adenosine A2A receptor, over 500 nM; against adenosine A3 receptor, over 500 nM.
Consider `CCNC(=O)CC1CN(C(=O)c2nc(N[C@@H](C)c3cncc(F)c3)nc3cc(C)sc23)C1` [Example Z495, (S)—N-Ethyl-2-(1-(2-((1-(5-fluoropyridin-3-yl)ethyl)amino)-6-methylthieno[3,2-d]pyrimidine-4-carbonyl)azetidin-3-yl)acetamide], for which, at adenosine A2B receptor, the Ratio stood at 23.37. The IC50 on adenosine A2B receptor is under 10 nM; on adenosine A1 receptor it was over 500 nM; at adenosine A2A receptor, 50 to 100 nM; against adenosine A3 receptor, 50 to 100 nM.
`C[C@H](Nc1nc(C(=O)N2CC(C(=O)NOC(C)(C)C)C2)c2sccc2n1)c1cncc(F)c1` [Example Z579, (S)—N-(tert-Butoxy)-1-(2-((1-(5-fluoropyridin-3-yl)ethyl)amino)thieno[3,2-d]pyrimidine-4-carbonyl)azetidine-3-carboxamide]: the Ratio at adenosine A2B receptor came out at 1.29. Moreover, the concentration for half-maximal inhibition (IC50) was 50 to 100 nM at adenosine A2B receptor, over 500 nM on adenosine A1 receptor, 50 to 100 nM on adenosine A2A receptor and over 500 nM at adenosine A3 receptor.
Regarding `Cc1cc2nc(N[C@@H](C)c3ccccn3)nc(C(=O)N3CC(CN)C3)c2s1` [Example Z479, (S)-(3-(Aminomethyl)azetidin-1-yl)(6-methyl-2-((1-(pyridin-2-yl)ethyl)amino)thieno[3,2-d]pyrimidin-4-yl)methanone], at adenosine A2B receptor, the Ratio amounted to 96.36. The IC50 at adenosine A2B receptor is 10 to 50 nM; on adenosine A1 receptor it was over 500 nM; on adenosine A2A receptor, over 500 nM; on adenosine A3 receptor it was over 500 nM.
For the molecule `Cc1cc2nc(N[C@@H](C)c3cncc(F)c3)nc(C(=O)N3CC(NC(=O)OC(C)(C)C)C3)c2s1` [Example Z429, tert-Butyl (S)-(1-(2-((1-(5-Fluoropyridin-3-yl)ethyl)amino)-6-methylthieno[3,2-d]pyrimidine-4-carbonyl)azetidin-3-yl)carbamate], the Ratio at adenosine A2B receptor is 4.15. Moreover, the IC50 at adenosine A2B receptor is under 10 nM; on adenosine A1 receptor, 50 to 100 nM; at adenosine A2A receptor, 10 to 50 nM; at adenosine A3 receptor, 10 to 50 nM.
As to `Cc1cc2nc(N[C@@H](C)c3cncc(F)c3)nc(C(=O)N3CC[C@@H](CN)C3)c2s1` [Example Z597, ((S)-3-(Aminomethyl)pyrrolidin-1-yl)(2-(((S)-1-(5-fluoropyridin-3-yl)ethyl)amino)-6-methylthieno[3,2-d]pyrimidin-4-yl)methanone], the Ratio at adenosine A2B receptor was determined as 99.33. Further, the IC50 on adenosine A2B receptor was 10 to 50 nM; against adenosine A1 receptor, under 10 nM; at adenosine A2A receptor it was over 500 nM; against adenosine A3 receptor, under 10 nM.
Regarding `C[C@H](Nc1nc(C(=O)NCCc2cccc(O)c2)c2sccc2n1)c1cccnc1` [Example Z427, (S)—N-(3-Hydroxyphenethyl)-2-((1-(pyridin-3-yl)ethyl)amino)thieno[3,2-d]pyrimidine-4-carboxamide], the Ratio at adenosine A2B receptor is 5.03. The IC50 on adenosine A2B receptor lay in the range of 50 to 100 nM; against adenosine A1 receptor it was 100 to 500 nM; on adenosine A2A receptor, 100 to 500 nM; at adenosine A3 receptor, 100 to 500 nM.
Turning to `Cc1cc2nc(N[C@@H](C)c3cncc(F)c3)nc(C(=O)N3CC(C(N)=O)C3)c2s1` [Example Z504, (S)-1-(2-((1-(5-Fluoropyridin-3-yl)ethyl)amino)-6-methylthieno[3,2-d]pyrimidine-4-carbonyl)azetidine-3-carboxamide], the Ratio at adenosine A2B receptor is listed as 287.41. The half-maximal inhibitory concentration (IC50) on adenosine A2B receptor was under 10 nM; at adenosine A1 receptor it was over 500 nM; on adenosine A2A receptor, over 500 nM; against adenosine A3 receptor, over 500 nM.
For the molecule `Cc1cc2nc(N[C@@H](C)c3cncc(F)c3)nc(C(=O)N3CC[C@@H](NC(=O)OCc4ccccc4)C3)c2s1` [Example Z491, Benzyl ((R)-1-(2-(((S)-1-(5-fluoropyridin-3-yl)ethyl)amino)-6-methylthieno[3,2-d]pyrimidine-4-carbonyl)pyrrolidin-3-yl)carbamate], the Ratio at adenosine A2B receptor worked out at 86.94. In addition, the IC50 at adenosine A2B receptor was 10 to 50 nM; on adenosine A1 receptor, over 500 nM; on adenosine A2A receptor, over 500 nM; at adenosine A3 receptor, over 500 nM.
For `Cc1cc2nc(N[C@@H](C)c3ccccn3)nc(C(=O)N3CC(CNC(=O)OC(C)(C)C)C3)c2s1` [Example Z476, tert-Butyl (S)-((1-(6-methyl-2-((1-(pyridin-2-yl)ethyl)amino)thieno[3,2-d]pyrimidine-4-carbonyl)azetidin-3-yl)methyl)carbamate], the Ratio at adenosine A2B receptor was determined as 5.27. Besides, the IC50 at adenosine A2B receptor is 10 to 50 nM; on adenosine A1 receptor it was over 500 nM; on adenosine A2A receptor it was 100 to 500 nM; against adenosine A3 receptor it was over 500 nM.
Regarding `Cc1cc2nc(N[C@@H](C)c3cncc(F)c3)nc(C(=O)N3CC(N(C)C)C3)c2s1` [Example Z481, (S)-(3-(Dimethylamino)azetidin-1-yl)(2-((1-(5-fluoropyridin-3-yl)ethyl)amino)-6-methylthieno[3,2-d]pyrimidin-4-yl)methanone], on adenosine A2B receptor, the Ratio was 111.93. In addition, the IC50 was 10 to 50 nM on adenosine A2B receptor, over 500 nM at adenosine A1 receptor, over 500 nM at adenosine A2A receptor and over 500 nM on adenosine A3 receptor.
